{
  "source": "paper PMC11812216",
  "about": "“Multifunctional hyaluronic acid-based biomimetic/pH-responsive hybrid nanostructured lipid carriers for treating bacterial sepsis” (Journal of Biomedical Science, 2025)",
  "key": {"[1]": {"target": "T1, Recombinant human TLR2 (RPA663Hu03) (Homo sapiens, UniProt O60603)", "T1 construct": "commercial recombinant protein (Biocom Africa), His-tag labelled with Red-tris-NTA", "T1 sequence (O60603 21-588 limits assumed)": "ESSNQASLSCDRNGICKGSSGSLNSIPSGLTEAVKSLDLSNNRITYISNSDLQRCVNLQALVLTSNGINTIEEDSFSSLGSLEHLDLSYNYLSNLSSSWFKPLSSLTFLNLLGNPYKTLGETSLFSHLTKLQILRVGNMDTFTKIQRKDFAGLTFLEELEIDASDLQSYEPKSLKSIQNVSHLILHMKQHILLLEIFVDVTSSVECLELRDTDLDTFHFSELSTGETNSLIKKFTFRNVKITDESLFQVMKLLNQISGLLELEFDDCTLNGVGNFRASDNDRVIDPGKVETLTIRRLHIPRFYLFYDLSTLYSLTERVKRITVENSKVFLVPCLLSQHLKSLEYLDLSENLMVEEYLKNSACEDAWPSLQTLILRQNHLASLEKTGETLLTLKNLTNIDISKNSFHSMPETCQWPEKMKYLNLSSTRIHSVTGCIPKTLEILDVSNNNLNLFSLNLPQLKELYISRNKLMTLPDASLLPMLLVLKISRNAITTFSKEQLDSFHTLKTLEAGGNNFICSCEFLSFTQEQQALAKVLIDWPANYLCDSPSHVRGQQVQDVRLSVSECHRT", "assay": "microscale thermophoresis, His-tag-labelled TLR2", "assay_type": "binding", "source_text": "microscale thermophoresis, His-tag-labelled TLR2 on Recombinant human TLR2 (RPA663Hu03)"}, "[2]": {"target": "T2, Recombinant human TLR4 (Active ab233665) (Homo sapiens, UniProt O00206)", "T2 construct": "commercial recombinant protein (Abcam), labelled with Blue-NHS dye; no MD-2 mentioned", "T2 sequence (O00206 24-631 limits assumed)": "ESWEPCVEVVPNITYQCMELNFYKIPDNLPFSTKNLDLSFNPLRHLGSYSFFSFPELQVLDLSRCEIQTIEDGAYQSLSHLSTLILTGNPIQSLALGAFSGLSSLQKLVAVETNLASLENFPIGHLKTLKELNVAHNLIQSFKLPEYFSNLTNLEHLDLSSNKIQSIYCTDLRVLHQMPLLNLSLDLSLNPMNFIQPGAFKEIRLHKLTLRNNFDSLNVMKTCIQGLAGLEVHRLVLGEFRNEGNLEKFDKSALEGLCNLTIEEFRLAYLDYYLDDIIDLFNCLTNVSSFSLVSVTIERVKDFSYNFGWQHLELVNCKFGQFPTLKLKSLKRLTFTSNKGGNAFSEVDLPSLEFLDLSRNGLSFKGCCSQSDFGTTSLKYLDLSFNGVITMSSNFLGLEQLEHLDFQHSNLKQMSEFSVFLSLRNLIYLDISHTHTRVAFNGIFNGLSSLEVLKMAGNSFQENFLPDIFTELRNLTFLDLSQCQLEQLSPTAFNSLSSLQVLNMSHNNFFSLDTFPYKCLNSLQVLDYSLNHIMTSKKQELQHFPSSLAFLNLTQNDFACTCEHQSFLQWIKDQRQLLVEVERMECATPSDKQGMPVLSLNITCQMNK", "assay": "microscale thermophoresis, Blue-NHS-labelled TLR4", "assay_type": "binding", "source_text": "microscale thermophoresis, Blue-NHS-labelled TLR4 on Recombinant human TLR4 (Active ab233665)"}},
  "data": [
    {"smiles": "NCCCC[C@H](N)C(=O)O", "note": "[Lys]", "values": [
      {"measurement": "Kd", "setting": "[1]", "value": "2.78 ± 0.74", "unit": "µM"},
      {"measurement": "Kd", "setting": "[2]", "value": "43.5 ± 2.35", "unit": "µM"}
    ]}
  ]
}
